Data reported in US9029092B2, “Solution phase homogeneous assays” (Beckman Coulter, Inc., priority 2009, dated 2015).
Read-outs that look alike come from different tables or passages of the source.

What was measured:
PSA = experiment: Screening SSIA by homogeneous PSA immunoassay (anti-PSA-AK1 + anti-PSA-HRP); assay type: biochemical, human
Procedure: This example presents one method used for testing of candidate compounds for functionality as SSIA in assays of the present disclosure. Testing was conducted in a model screening immunoassay of the protein PSA. Tests were run using a 96-well microtiter plate format. A solution containing 30 μL of mouse anti-PSA-AK1 (66 ng), 30 μL of mouse anti-PSA-HRP conjugate (7.8 ng), 36 μL of human female serum, and 24 μL of PSA calibrator were pipetted into each well. The plate was incubated at 37° C. for 10 minutes. A 5 μL aliquot of the test compound (various concentrations) was added to each well. Chemiluminescence was triggered by the addition of 100 μL of a solution of a trigger solution whose composition is listed below. The chemiluminescent flash was integrated for 5 seconds after the addition of the trigger solution using a Luminoskan Asent® plate luminometer, (Thermo Fischer Scientific, Inc., Waltham, Mass.).
It is desirable that the improvement factor be at least 2 (S5/S0≧ about 20-30) and more desirable that improvement factor be at least 5 (S5/S0≧ about 50), yet more desirable that S5/S0 be ≧100 in the present screen.

TnI = experiment: Assays utilizing various SSIA in TnI assay; assay type: biochemical; details: for Signal/Noise S1/S0: calibrator S1; for Signal/Noise S2/S0: calibrator S2; for Signal/Noise S3/S0: calibrator S3; for Signal/Noise S4/S0: calibrator S4; for Signal/Noise S5/S0: calibrator S5; for Signal/Noise S6/S0: calibrator S6
Procedure: In a reaction tube, 400 uL of TnI M6 antibody-HRP conjugate at 0.5 ug/mL in buffered aqueous solution at pH. 8.0 (100 mM Tris, 150 mM NaCl, 0.1 mM EDTA, 0.2% Tween-20 and 1% BSA), 400 uL of AK1˜Dex70/31˜Streptavidin (fraction 1) 2:1 SA/Ab at 2 ug/mL Ab also in buffered aqueous solution at pH 8.0, and 400 uL of calibrator standard solution containing the TnI analyte at a known concentration. One tube was prepared for each calibrator concentration. […] Next, 25 uL of each antioxidant as a concentrated solution of 2 mM, 1 mM or 0.5 mM was pipetted into the plate wells using a repeater pipette. The plates were rotated for 10 seconds to mix and incubated between 5 to 33 minutes. Detection was performed with a SpectraMax L injection plate luminometer.

biotinylated HRP = experiment: Model system for selection of SSIA (AK1/streptavidin BSA microparticles + biotinylated HRP); assay type: biochemical, horseradish; details: SSIA 100 μM final; for light intensity, BTN-HRP0: Btn-HRP 0 ng/mL; for light intensity, BTN-HRP0 / light intensity, BTN-HRP1 / light intensity, BTN-HRP10 / light intensity, BTN-HRP100 / light intensity, BTN-HRP250: total HRP 500 ng/mL; for S1/S0: Btn-HRP 1 ng/mL vs 0; for light intensity, BTN-HRP1: Btn-HRP 1 ng/mL; for S2/S0: Btn-HRP 10 ng/mL vs 0; for light intensity, BTN-HRP10: Btn-HRP 10 ng/mL; for S3/S0: Btn-HRP 100 ng/mL vs 0; for light intensity, BTN-HRP100: Btn-HRP 100 ng/mL; for S4/S0: Btn-HRP 250 ng/mL vs 0; for light intensity, BTN-HRP250: Btn-HRP 250 ng/mL
Procedure: The model system uses a microparticle conjugated to BSA (bovine serum albumin) labeled with a […] and acridan ketenedithioacetal chemiluminescent label (AK1) as the chemiluminescent-labeled sbp, and biotinylated HRP as the activator-labeled specific binding pair. In the model system, varying amounts of Btn-HRP is added to the chemiluminescent-labeled specific binding pair at 0, 1, 10, 100 and 250 ng/mL. Additional unlabeled HRP is added to reach a total HRP of concentration of 500 ng/mL in each reaction mixture. The unlabeled HRP in combination with the activator-labeled sbp was provided to the chemiluminescent-labeled sbp microparticles to emulate sample. A compound for assessment as an SSIA was also added. This reaction mixture of the model system is then triggered by addition of trigger solution in a manner of assays of the present disclosure.
To prepare the chemiluminescent-labeled sbp on microparticles, Bovine Serum Albumin (BSA) was biotinylated with 4× molar excess of biotin-LC-sulfoNHS (Pierce Biotechnology Inc., Rockford, Ill., USA). Unbound reactants were removed via desalting or dialysis. The biotin-BSA was then reacted with a 5× molar excess of an NHS ester of acridan ketenedithioacetal AK1 in 20 mM sodium phosphate pH 7.2: DMSO 75:25, v/v) followed by desalting in the same buffer. The dual labeled (biotin and AK1) BSA was then coupled with tosyl activated M280 microparticles (Invitrogen Corporation, Carlsbad, Calif., USA) in a 0.1M borate buffer pH 9.5 at a concentration of about 20 μg of labeled BSA per mg of microparticles for 16-24 h at 40° C. After coupling the microparticles were stripped for 1 h at 40° C. with 0.2 M TRIS base, 2% SDS, pH˜11. The stripping process was repeated one additional time. Microparticles were then suspended in a 0.1% BSA/TRIS buffered saline (BSA/TBS) buffer and streptavidin (SA) was added at approximately 15 μg SA per mg microparticles. Streptavidin was mixed with the microparticles for 45-50 min at room temperature. The microparticles were then washed three times and suspended in the same BSA/TBS.
HRP, (Roche Diagnostics, Indianapolis, Ind., USA) was biotinylated with 4× molar excess of biotin-LC-sulfoNHS (Pierce Biotechnology Inc., Rockford, Ill., USA). Alternatively, 25× molar excess of biotin-PEO4-NHS may be used. Unbound reactants were removed via desalting or dialysis.
Each SSIA compound for assessment was solubilized in Buffer II at a concentration at least 10× of the working strength concentration.
25 μl of 1 mg/ml of dual-labeled (biotin and AK1) BSA M280 particles were mixed with 45 μl of working concentration SSIA in Buffer II. The assay volume brought to 85 μl by adding 15 μl of Buffer II. 15 μl of sample containing Btn-HRP:HRP at different ratios (The amount of biotinylated-HRP varied from 0, 1, 10, 100 and 250 ng/mL) was added. The reaction mixture was incubated for 30 min at 37° C., then 100 μL of trigger solution was added and the light intensity recorded. Total volume of reaction mixture, including trigger solution was 200 μL with a final concentration of 100 μM of SSIA.
The screening tests were performed using a modified DxI® Immunoassay System (Beckman Coulter, Inc. Brea, Calif.) as described above.

[1] = test compound final conc. 0.244 mM (244 uM)
[2] = test compound final conc. […] ([…]), S5 = 129 ng PSA/mL vs zero PSA
[3] = SSIA final concentration 125 uM
[4] = SSIA final concentration 250 uM
[5] = SSIA final concentration 500 uM
[6] = SSIA final concentration 6.25 uM
[7] = SSIA final concentration 12.5 uM

C=CCc1ccc(O)c(OC)c1
S5/S0 (PSA; [1]): 30

Nc1ccc2ccccc2c1O
S5/S0 (PSA; [1]): 109

Oc1cccc(O)c1O
S5/S0 (PSA; [2]): 69

O=c1c(O)c(-c2ccccc2)oc2cc(O)ccc12
S5/S0 (PSA; [2]): 14

OCCO [Ethylene glycol]
S5/S0 (PSA): 14

C[C@H]1OC(=O)C(O)=C1O
S5/S0 (PSA; [2]): 423

Nc1ccc(C(=O)O)cc1O [drawing 110]
S5/S0 (PSA; [2]): 153

O=c1cc(O)c2ccccc2o1
S5/S0 (PSA; [2]): 17

Nc1ccccc1O [2-amino phenol, 2-aminophenol]
Signal/Noise S1/S0 (TnI; [3]): 1.4
Signal/Noise S1/S0 (TnI; [4]): 0.9
Signal/Noise S1/S0 (TnI; [5]): 1.3
Signal/Noise S2/S0 (TnI; [3]): 2.3
Signal/Noise S2/S0 (TnI; [4]): 1.7
Signal/Noise S2/S0 (TnI; [5]): 1.8
Signal/Noise S3/S0 (TnI; [3]): 7.6
Signal/Noise S3/S0 (TnI; [4]): 4.5
Signal/Noise S3/S0 (TnI; [5]): 4.8
Signal/Noise S4/S0 (TnI; [3]): 27.2
Signal/Noise S4/S0 (TnI; [4]): 15.4
Signal/Noise S4/S0 (TnI; [5]): 10.8
Signal/Noise S5/S0 (TnI; [3]): 183.7
Signal/Noise S5/S0 (TnI; [4]): 101.7
Signal/Noise S5/S0 (TnI; [5]): 52.5
Signal/Noise S6/S0 (TnI; [3]): 1604.7
Signal/Noise S6/S0 (TnI; [4]): 739.1
Signal/Noise S6/S0 (TnI; [5]): 329.9
light intensity, BTN-HRP0 (biotinylated HRP): 65
S1/S0 (biotinylated HRP): 5.5
light intensity, BTN-HRP1 (biotinylated HRP): 356
S2/S0 (biotinylated HRP): 132.8
light intensity, BTN-HRP10 (biotinylated HRP): 8,632
S3/S0 (biotinylated HRP): 32195.4
light intensity, BTN-HRP100 (biotinylated HRP): 2,092,703
S4/S0 (biotinylated HRP): 61672.1
light intensity, BTN-HRP250 (biotinylated HRP): 4,008,689
effectiveness as SSIA in the model system (biotinylated HRP): demonstrating utility as SSIA

Nc1cc(C[C@H](N)C(=O)O)ccc1O [3-Amino Tyrosine]
Signal/Noise S1/S0 (TnI; [3]): 1.5
Signal/Noise S1/S0 (TnI; [4]): 1.7
Signal/Noise S1/S0 (TnI; [5]): 1.1
Signal/Noise S2/S0 (TnI; [3]): 2.8
Signal/Noise S2/S0 (TnI; [4]): 2.7
Signal/Noise S2/S0 (TnI; [5]): 1.9
Signal/Noise S3/S0 (TnI; [3]): 9.0
Signal/Noise S3/S0 (TnI; [4]): 8.1
Signal/Noise S3/S0 (TnI; [5]): 5.9
Signal/Noise S4/S0 (TnI; [3]): 32.2
Signal/Noise S4/S0 (TnI; [4]): 31.1
Signal/Noise S4/S0 (TnI; [5]): 19.8
Signal/Noise S5/S0 (TnI; [3]): 234.8
Signal/Noise S5/S0 (TnI; [4]): 217.9
Signal/Noise S5/S0 (TnI; [5]): 118.6
Signal/Noise S6/S0 (TnI; [3]): 2268.7
Signal/Noise S6/S0 (TnI; [4]): 1772.4
Signal/Noise S6/S0 (TnI; [5]): 766.3

c1ccc2c(c1)Nc1ccccc1O2 [phenoxazine]
Signal/Noise S1/S0 (TnI; [6]): 1.5
Signal/Noise S1/S0 (TnI; [7]): 1.5
Signal/Noise S1/S0 (TnI; SSIA final concentration 25 uM): 1.3
Signal/Noise S2/S0 (TnI; [6]): 3.1
Signal/Noise S2/S0 (TnI; [7]): 2.3
Signal/Noise S2/S0 (TnI; SSIA final concentration 25 uM): 1.6
Signal/Noise S3/S0 (TnI; [6]): 8.4
Signal/Noise S3/S0 (TnI; [7]): 6.4
Signal/Noise S3/S0 (TnI; SSIA final concentration 25 uM): 3.7
Signal/Noise S4/S0 (TnI; [6]): 32.1
Signal/Noise S4/S0 (TnI; [7]): 24.5
Signal/Noise S4/S0 (TnI; SSIA final concentration 25 uM): 12.1
Signal/Noise S5/S0 (TnI; [6]): 227.2
Signal/Noise S5/S0 (TnI; [7]): 147.2
Signal/Noise S5/S0 (TnI; SSIA final concentration 25 uM): 62.8
Signal/Noise S6/S0 (TnI; [6]): 2049.8
Signal/Noise S6/S0 (TnI; [7]): 1116.9
Signal/Noise S6/S0 (TnI; SSIA final concentration 25 uM): 387.3

Cc1c(C)c2c(c(C)c1O)CCC(C)(C(=O)O)O2 (centres unmarked) [Trolox ®]
Signal/Noise S1/S0 (TnI; [3]): 1.6
Signal/Noise S1/S0 (TnI; [4]): 2.0
Signal/Noise S1/S0 (TnI; [5]): 1.7
Signal/Noise S2/S0 (TnI; [3]): 3.3
Signal/Noise S2/S0 (TnI; [4]): 3.5
Signal/Noise S2/S0 (TnI; [5]): 2.6
Signal/Noise S3/S0 (TnI; [3]): 11.5
Signal/Noise S3/S0 (TnI; [4]): 12.8
Signal/Noise S3/S0 (TnI; [5]): 11.3
Signal/Noise S4/S0 (TnI; [3]): 44.4
Signal/Noise S4/S0 (TnI; [4]): 45.8
Signal/Noise S4/S0 (TnI; [5]): 31.1
Signal/Noise S5/S0 (TnI; [3]): 302.0
Signal/Noise S5/S0 (TnI; [4]): 295.1
Signal/Noise S5/S0 (TnI; [5]): 192.0
Signal/Noise S6/S0 (TnI; [3]): 2713.1
Signal/Noise S6/S0 (TnI; [4]): 2334.5
Signal/Noise S6/S0 (TnI; [5]): 1181.7
light intensity, BTN-HRP0 (biotinylated HRP): 173
S1/S0 (biotinylated HRP): 8.4
light intensity, BTN-HRP1 (biotinylated HRP): 1,460
S2/S0 (biotinylated HRP): 215.1
light intensity, BTN-HRP10 (biotinylated HRP): 37,291
S3/S0 (biotinylated HRP): 41832.7
light intensity, BTN-HRP100 (biotinylated HRP): 7,251,008
S4/S0 (biotinylated HRP): 62274.5
light intensity, BTN-HRP250 (biotinylated HRP): 10,794,247
effectiveness as SSIA in the model system (biotinylated HRP): demonstrating utility as SSIA

Oc1ccc(C=Cc2cc(O)cc(O)c2)cc1 [Resveratrol]
light intensity, BTN-HRP0 (biotinylated HRP): 64,051
S1/S0 (biotinylated HRP): 1.3
light intensity, BTN-HRP1 (biotinylated HRP): 81,452
S2/S0 (biotinylated HRP): 16.8
light intensity, BTN-HRP10 (biotinylated HRP): 1,073,968
S3/S0 (biotinylated HRP): 92.8
light intensity, BTN-HRP100 (biotinylated HRP): 5,944,792
S4/S0 (biotinylated HRP): 102.4
effectiveness as SSIA in the model system (biotinylated HRP): insuffient effectiveness

N[C@@H](CS)C(=O)O [Cysteine]
light intensity, BTN-HRP0 (biotinylated HRP): 35,695
S1/S0 (biotinylated HRP): 1.6
light intensity, BTN-HRP1 (biotinylated HRP): 58,203
S2/S0 (biotinylated HRP): 69.6
light intensity, BTN-HRP10 (biotinylated HRP): 2,483,411
S3/S0 (biotinylated HRP): 256.3
light intensity, BTN-HRP100 (biotinylated HRP): 9,147,371
S4/S0 (biotinylated HRP): 285.5
light intensity, BTN-HRP250 (biotinylated HRP): 10,190,505
effectiveness as SSIA in the model system (biotinylated HRP): insuffient effectiveness
